Assay results: patent US20130172294A1, “Treatment with VB-201” (Vascular Biogenics Ltd., priority 2010, published 2013)

Experiment: Effect of food and capsule coating on single-dose pharmacokinetics (Example 3)
Format: in vivo, human
Procedure: Determination of VB-201 concentrations in plasma was performed using an HPLC-MS/MS (high performance liquid chromatography with tandem mass spectrometric detection) assay. Calibration was for a range of from 5 to 500 ng/ml for low doses and from 50 to 5000 ng/ml for high doses. Pharmacokinetic parameters were estimated by using a non-compartmental method, except for the AUC (area under curve), which was determined using a (log-) trapezoidal rule as the area above the previous trough level. All calculations were made using PKWizard (developed by Russell Barbare and Dr. […] was validated against WinNonlin (Pharsight Corp.), which is an FDA-recognized validated program. Pharmacokinetic parameters were calculated by the program according to standard methods used in the art. Calculation of the pharmacokinetic characteristics was based on the actual blood sampling time (in hours), with predose times set to zero. Concentrations below the LLOQ (lower limit of quantification; 4.974 ng/ml) were assumed to be zero. The effects of food on the pharmacokinetics of enteric coated and non-coated VB-201 capsules were investigated in a double-blind, placebo-controlled study in healthy subjects. Cohorts of six subjects each received a single dose of 10 mg, 2×10 mg or 20 mg VB-201 in the morning. […] Subjects were randomly assigned to receive the drug when fed (i.e., following completion of a standardized high fat meal) or when fasting (i.e., fasting for at least 10 hours). […] Subjects then underwent an additional 8 day washout period, after which subjects underwent a second administration. Subjects who received the first administration when fasting, received the second administration when fed, and subjects who received the first administration when fed, received the second administration when fasting. Following the second administration, blood samples were taken at the same times post-dose as previously. Concentration-time curves were constructed for time periods of up to 144 hours. Pharmacokinetic parameters were calculated based on data for the first 24 hours and for the whole 144 hours. […] Nevertheless, parameters were also calculated from data covering the first 24 hours in order to compare parameters with previous studies. Statistical comparisons of doses, coated vs. non-coated capsules, feeding vs. fasting and coating-feeding interactions were performed using a mixed model ANOVA in an SAS 8.02 software package (SAS Institute, Cary, N.C.) using PROC MIXED

## CCCCCCCCCCCCCCCCOCC(COP(=O)([O-])OCC[N+](C)(C)C)OCCCCC(=O)O (stereo not shown) [VB-201, 1-hexadecyl-2-(4′-carboxybutyl)-glycerol-3-phosphocholine]
1 × 20 mg non-coated fasting
  AUC (0-infinity, from 24): 16958 ng·h/mL
  AUC (0-infinity, from 144): 29478 ng·h/mL
  AUC(0-24): 10013 ng·h/mL
  AUC(0-144): 26650 ng·h/mL
  AUMC (0-24): 122207 hours^2*ng/ml
  AUMC (0-infinity): 1763607 hours^2*ng/ml
  Cl/F (0-24): 1.301 L/h
  Cl/F (from 144): 0.702 L/h
  Cmax: 660.4 ng/mL
  Ke (from 24): 0.0486 h⁻¹
  Ke (from 144): 0.0166 h⁻¹
  MTT (0-24): 12.0 h
  MTT (from 144): 61.0 h
  T1/2 (from 24): 14.6 h
  T1/2 (from 144): 43.5 h
  Tmax: 8.33 h
1 × 20 mg non-coated fed
  AUC (0-infinity, from 24): 23552 ng·h/mL
  AUC (0-infinity, from 144): 26424 ng·h/mL
  AUC(0-24): 8334 ng·h/mL
  AUC(0-144): 24282 ng·h/mL
  AUMC (0-24): 111005 hours^2*ng/ml
  AUMC (0-infinity): 1555946 hours^2*ng/ml
  Cl/F (0-24): 1.197 L/h
  Cl/F (from 144): 0.852 L/h
  Cmax: 546.4 ng/mL
  Ke (from 24): 0.0332 h⁻¹
  Ke (from 144): 0.0193 h⁻¹
  MTT (0-24): 13.0 h
  MTT (from 144): 57.2 h
  T1/2 (from 24): 25.2 h
  T1/2 (from 144): 36.4 h
  Tmax: 8.17 h
2 × 10 mg coated fasting
  AUC (0-infinity, from 24): 10388 ng·h/mL
  AUC (0-infinity, from 144): 24950 ng·h/mL
  AUC(0-24): 6427 ng·h/mL
  AUC(0-144): 20269 ng·h/mL
  AUMC (0-24): 83132 hours^2*ng/ml
  AUMC (0-infinity): 2246560 hours^2*ng/ml
  Cl/F (0-24): 3.318 L/h
  Cl/F (from 144): 1.815 L/h
  Cmax: 424.6 ng/mL
  Ke (from 24): 0.0493 h⁻¹
  Ke (from 144): 0.0174 h⁻¹
  MTT (0-24): 12.9 h
  MTT (from 144): 69.2 h
  T1/2 (from 24): 14.9 h
  T1/2 (from 144): 48.0 h
  Tmax: 9.67 h
2 × 10 mg coated fed
  AUC (0-infinity, from 24): 15799 ng·h/mL
  AUC (0-infinity, from 144): 24463 ng·h/mL
  AUC(0-24): 5008 ng·h/mL
  AUC(0-144): 21417 ng·h/mL
  AUMC (0-24): 74749 hours^2*ng/ml
  AUMC (0-infinity): 1794144 hours^2*ng/ml
  Cl/F (0-24): 2.067 L/h
  Cl/F (from 144): 1.239 L/h
  Cmax: 422.3 ng/mL
  Ke (from 24): 0.0427 h⁻¹
  Ke (from 144): 0.0196 h⁻¹
  MTT (0-24): 15.1 h
  MTT (from 144): 64.6 h
  T1/2 (from 24): 22.8 h
  T1/2 (from 144): 37.7 h
  Tmax: 14.33 h
2 × 10 mg non-coated fasting
  AUC (0-infinity, from 24): 14643 ng·h/mL
  AUC (0-infinity, from 144): 25734 ng·h/mL
  AUC(0-24): 10036 ng·h/mL
  AUC(0-144): 24028 ng·h/mL
  AUMC (0-24): 117485 hours^2*ng/ml
  AUMC (0-infinity): 1319516 hours^2*ng/ml
  Cl/F (0-24): 1.444 L/h
  Cl/F (from 144): 0.810 L/h
  Cmax: 724.4 ng/mL
  Ke (from 24): 0.0606 h⁻¹
  Ke (from 144): 0.0195 h⁻¹
  MTT (0-24): 11.7 h
  MTT (from 144): 51.5 h
  T1/2 (from 24): 11.7 h
  T1/2 (from 144): 36.3 h
  Tmax: 8.67 h
2 × 10 mg non-coated fed
  AUC (0-infinity, from 24): 15305 ng·h/mL
  AUC (0-infinity, from 144): 25822 ng·h/mL
  AUC(0-24): 8708 ng·h/mL
  AUC(0-144): 24104 ng·h/mL
  AUMC (0-24): 109878 hours^2*ng/ml
  AUMC (0-infinity): 1409500 hours^2*ng/ml
  Cl/F (0-24): 1.394 L/h
  Cl/F (from 144): 0.802 L/h
  Cmax: 652.1 ng/mL
  Ke (from 24): 0.0528 h⁻¹
  Ke (from 144): 0.0195 h⁻¹
  MTT (0-24): 12.7 h
  MTT (from 144): 54.3 h
  T1/2 (from 24): 15.4 h
  T1/2 (from 144): 36.1 h
  Tmax: 8.50 h
Enteric coated vs non-coated
  effect of enteric coatings on Tmax: increased
